± gives the standard deviation of the averaged measurements.
Legend:
Experiment in all cases: drug sensitivity score (DSS) (DSS score); higher = more sensitive (stronger growth inhibition); extreme values may be limits of the assay
[1] = test system: Ba/F3 P210-BCR-ABL1 RUNX1-/- (mouse)
How it was run: (§1)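 A drug sensitivity score summarised each dose-response curve, with luminescence from CellTiter-Glo scaled between vehicle and positive-control wells. Values are the mean of two replicates. The cells were mouse Ba/F3 clones that were CRISPR/Cas9-edited at a target exon or were edited controls, exposed on pre-printed 384-well plates to a 528-compound library at five concentrations spanning a 10,000-fold range. Plates held 10,000 cells per well in RPMI with 10% FBS for 72 h at 37 °C and 5% CO2.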

[2] = test system: Ba/F3 P210-BCR-ABL1 RUNX1-/mut (mouse)
How it was run: as §1

[3] = test system: Ba/F3 P210-BCR-ABL1 RUNX1wt/wt control (mouse)
How it was run: as §1

Structure (SMILES) | drug sensitivity score [1] | drug sensitivity score [2] | drug sensitivity score [3]
C[C@@H]1C=C2C(=O)O[C@@H]3CC[C@H](C1)[C@]23O [Galiellalactone] | 12 ± 3.1 | 9.7 ± 4.1 | 5.1
Cc1cccc(-c2nn3c(c2-c2ccnc4ccc(C(N)=O)cc24)CCC3)n1 [Galunisertib] | 0 | 0 | 0
Cc1cc(Nc2cc(CN3CCOCC3)c3nc(C)c(Cc4ccc(Cl)cc4F)n3n2)n[nH]1 [Gandotinib] | 4.8 ± 0.71 | 4.9 ± 1.6 | 2.35 ± 0.21
CC(C)c1cc(-c2n[nH]c(=O)n2-c2ccc3c(ccn3C)c2)c(O)cc1O [Ganetespib] | 24.8 ± 3.4 | 23.6 ± 2.2 | 19.1 ± 0.21
CN(C)C1CCN(C(=O)c2ccc(NC(=O)Nc3ccc(-c4nc(N5CCOCC5)nc(N5CCOCC5)n4)cc3)cc2)CC1 [Gedatolisib] | 13.6 ± 0.35 | 15.2 ± 0.92 | 4.55 ± 0.071
CCc1nc(C(N)=O)c(Nc2ccc(N3CCC(N4CCN(C)CC4)CC3)c(OC)c2)nc1NC1CCOCC1 [Gilteritinib] | 6.2 ± 2 | 8.4 ± 2.5 | 3.25 ± 0.78
CCN(CC)Cc1ccc2cc(COC(=O)Nc3ccc(C(=O)NO)cc3)ccc2c1 [Givinostat] | 13.4 ± 0.28 | 12.7 ± 0.57 | 7.9 ± 0.99
CN1CC[C@@H](NC(=O)Nc2ccc(C#N)cc2)C[C@@H]1c1nc2ccccc2[nH]1 [Glasdegib] | 0 | 0 | 0.05 ± 0.071
COCCNCc1ccc(-c2cc3nccc(Oc4ccc(NC(=S)NC(=O)Cc5ccc(F)cc5)cc4F)c3s2)nc1 [Glesatinib] | 7.4 ± 0.14 | 3.55 ± 1.1 | 0
CN1CCN(C2CCN(C(=O)Nc3cc(Oc4ccc(NC(=O)C5(C(=O)Nc6ccc(F)cc6)CC5)c(F)c4)ccn3)CC2)CC1 [Golvatinib] | 3.95 ± 2 | 1.8 ± 2 | 0
CC(C)C[C@H](NC(=O)[C@@H](COC(C)(C)C)NC(=O)[C@H](Cc1ccc(O)cc1)NC(=O)[C@H](CO)NC(=O)[C@H](Cc1c[nH]c2ccccc12)NC(=O)[C@H](Cc1cnc[nH]1)NC(=O)[C@@H]1CCC(=O)N1)C(=O)N[C@@H](CCCNC(=N)N)C(=O)N1CCC[C@H]1C(=O)NNC(N)=O [Goserelin] | 0 | 0.4 | 0
O=S(=O)(c1cccc2c(O)nccc12)N1CCCNCC1 [Hydroxyfasudil] | 0.15 ± 0.21 | 0.4 ± 0.57 | 0.2 ± 0.28
COc1cc2c(cc1-c1c(C)noc1C)ncc1[nH]c(=O)n([C@H](C)c3ccccn3)c12 [I-BET151] | 18.6 ± 0.78 | 18.4 ± 2.3 | 13.9
O=C(O)c1ccc(O)c2ncccc12 [IOX-1] | 2.5 ± 2 | 2.4 ± 2.8 | 1.75 ± 0.21
O=C(O)CNC(=O)c1c(O)c2ccccc2n(Cc2ccccc2)c1=O [IOX-2] | 0 | 0.3 ± 0.42 | 0
C=CC(=O)N1CCC[C@@H](n2nc(-c3ccc(Oc4ccccc4)cc3)c3c(N)ncnc32)C1 [Ibrutinib] | 1.5 ± 0.71 | 0.2 ± 0.28 | 0.35 ± 0.49
C#Cc1cccc(Nc2ncnc3cc4c(cc23)OCCOCCOCCO4)c1 [Icotinib] | 0 | 0 | 0
COc1cc(C(=O)O)ccc1NC(=O)[C@@H]1N[C@@H](CC(C)(C)C)[C@](C#N)(c2ccc(Cl)cc2F)[C@H]1c1cccc(Cl)c1F [Idasanutlin] | 9.4 ± 13 | 8.5 ± 12 | 5.05 ± 0.21
CC[C@H](Nc1ncnc2[nH]cnc12)c1nc2cccc(F)c2c(=O)n1-c1ccccc1 [Idelalisib] | 4.7 ± 2.5 | 2.3 ± 2.5 | 0
CCN1CCN(c2ccc(Nc3cc(N(C)C(=O)Nc4c(Cl)c(OC)cc(OC)c4Cl)ncn3)cc2)CC1 [Infigratinib] | 0 | 0 | 0
CC(C)NC[C@@H](C(=O)N1CCN(c2ncnc3c2[C@H](C)C[C@H]3O)CC1)c1ccc(Cl)cc1 [Ipatasertib] | 4.75 ± 0.92 | 3.4 ± 2.7 | 0.3 ± 0.42
CCC(C)n1ncn(-c2ccc(N3CCN(c4ccc(OCC5COC(Cn6cncn6)(c6ccc(Cl)cc6Cl)O5)cc4)CC3)cc2)c1=O (stereo not drawn) [Itraconazole] | 3.8 ± 5.4 | 4.6 ± 6.5 | 7.1 ± 1.3
N#Cc1ccnc(N2C(=O)CC[C@H]2C(=O)N(c2cncc(F)c2)[C@H](C(=O)NC2CC(F)(F)C2)c2ccccc2Cl)c1 [Ivosidenib] | 0.3 ± 0.42 | 1.35 ± 1.9 | 0

Structure (SMILES) | drug sensitivity score [1] | drug sensitivity score [2] | drug sensitivity score [3]
CC(C)C[C@H](NC(=O)CNC(=O)c1cc(Cl)ccc1Cl)B(O)O [Ixazomib] | 13.5 ± 2.4 | 8.95 ± 1.2 | 13.7 ± 1.4
Nc1cc(COc2c(Cl)cc(C[C@H](N)C(=O)O)cc2Cl)c2oc(-c3ccccc3)nc2c1 [JPH203] | 0 | 0 | 0
CC(C)NC(=O)COc1cccc(-c2nc(Nc3ccc4[nH]ncc4c3)c3ccccc3n2)c1 [KD025] | 2 ± 1.7 | 2.3 ± 1.4 | 0
O=C(Nc1cnn2ccc(N3CCC[C@@H]3c3cc(F)ccc3F)nc12)N1CC[C@H](O)C1 [Larotrectinib] | 0 | 0.05 ± 0.071 | 0.7 ± 0.71
Oc1ccc2c(c1)CC[C@H](c1ccccc1)[C@@H]2c1ccc(OCCN2CCCC2)cc1 [Lasofoxifene] | 0.15 ± 0.21 | 0.65 ± 0.92 | 0
COc1cc2nccc(Oc3ccc(NC(=O)NC4CC4)c(Cl)c3)c2cc1C(N)=O [Lenvatinib] | 2.7 ± 1.1 | 0.4 ± 0.57 | 0
Cc1ccc(F)c(NC(=O)Nc2ccc(-c3cccc4[nH]nc(N)c34)cc2)c1 [Linifanib] | 1.1 ± 1.6 | 0.1 ± 0.14 | 0.1 ± 0.14
CCNCCS(=O)(=O)NC[C@@]1(c2ccccc2)SC(NC(=O)C(C)(C)C)=NN1C(=O)C(C)(C)C [Litronesib] | 24.2 ± 1.6 | 21.5 ± 2.4 | 10.9 ± 0.28
Nc1nc(OCc2cc(Br)cs2)c2[nH]cnc2n1 [Lomeguatrib] | 0 | 0.05 ± 0.071 | 0
NC(=O)N1CCC(CC(=O)N2CCC([C@H]3c4ncc(Br)cc4CCc4cc(Cl)cc(Br)c43)CC2)CC1 [Lonafarnib] | 12.1 ± 17 | 13.8 ± 9.8 | 8.2 ± 0.14
Cc1c(F)cc(C(=O)NC2CC2)cc1-c1ccc(C(=O)NCC(C)(C)C)cn1 [Losmapimod] | 2.3 ± 2.4 | 1.8 ± 2.5 | 0.15 ± 0.21
CC[C@H](C)C(=O)O[C@H]1C[C@@H](C)C=C2C=C[C@H](C)[C@H](CC[C@@H]3C[C@@H](O)CC(=O)O3)[C@H]21 [Lovastatin] | 0 | 0 | 0
CNC(=O)c1cccc2cc(Oc3ccnc4cc(OCC5(N)CC5)c(OC)cc34)ccc12 [Lucitanib] | 3.1 ± 1.1 | 2.95 ± 1.1 | 0.05 ± 0.071
CCNC(=O)c1noc(-c2cc(C(C)C)c(O)cc2O)c1-c1ccc(CN2CCOCC2)cc1 [Luminespib] | 29.4 ± 1.7 | 28.7 ± 3.2 | 18.4 ± 0.57
O=C(O)CC[C@H]1CC[C@@](c2cc(F)ccc2F)(S(=O)(=O)c2ccc(Cl)cc2)CC1 [MK-0752] | 0 | 0 | 0
O=C(c1cccc(Cl)c1F)N1CCN(Cc2cccc(Nc3nccs3)n2)CC1 [MK-8745] | 4.7 ± 0.14 | 3.5 ± 0.99 | 0.85 ± 0.071
Cn1cc(-c2cnn3c(N)c(Br)c([C@@H]4CCCNC4)nc23)cn1 [MK-8776] | 7.25 ± 0.64 | 5.25 ± 3.3 | 0
Cc1cnc(-c2ccccc2C(C)C)nc1NCc1ccc(-n2ccnn2)cc1 [ML323] | 4.4 ± 1.6 | 3.35 ± 2.9 | 1.25 ± 0.071
O=C(CCNC(=O)c1ccc(OC(F)(F)F)cc1)N[C@@H]1CCCc2ccccc21 [ML390] | 18.55 ± 0.071 | 19.6 ± 0.92 | 12.4 ± 0.49
O=C(Nc1cccc(NC(=O)c2cccc(O)c2O)c1)c1cccc(O)c1O [MST-312] | 16.6 ± 0.21 | 17.1 ± 2 | 17.2 ± 0.42
CNC(=O)[C@@H](NC(=O)[C@H](CC(C)C)[C@H](O)C(=O)NO)C(C)(C)C [Marimastat] | 0 | 0.35 ± 0.49 | 0
CC(=O)O[C@]1(C(C)=O)CC[C@H]2[C@@H]3C=C(C)C4=CC(=O)CC[C@]4(C)[C@H]3CC[C@@]21C [Megestrol acetate] | 0.1 ± 0.14 | 0.15 ± 0.21 | 0
CCN(CC)CCCC(C)Nc1c2ccc(Cl)cc2nc2ccc(OC)cc12 (stereo not drawn) [Mepacrine] | 18.6 ± 2.2 | 19.7 ± 1.4 | 5.4

— the supplement of paper PMC8024199
